From patent US9464082B2, “Aryl and arylalkyl substituted pyrazolyl and pyrimidinyl tricyclic enones as antioxidant inflammation modulators” (AbbVie Inc., priority 2014, dated 2016) come the findings set out here.

The assay concerns IFNγ-Induced NO Production. Nature of the assay: Nitric Oxide Suppression Assay (Suppression of IFNγ-Induced NO Production). It is filed as cell-based. Particulars: RAW264.7; RAW 264.7 mouse macrophage cells; 2 hour pre-treatment with compound (3 μM to 0.3 nM, 10 point curve); 20 ng/mL interferon gamma, ~18 hour; Griess detection; n=2-3 in duplicates. An outline of the steps: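 Mouse RAW 264.7 macrophages pre-treated 2 h at 37 °C with compound (3 μM to 0.3 nM, 10 points; DMSO ≤1%), then stimulated with 20 ng/mL interferon gamma for ~18 h. Supernatant nitrite measured by Griess reaction, absorbance 520–550 nm. IC50 from curve fit of signal normalised to IFNγ alone, mean n=2-3 in duplicate.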
A general note: Griess reagent forms a coloured azo dye with nitrite.
What is called IC50 is the midpoint of a concentration-inhibition curve. As for `C[C@@H]1C(=O)C(C#N)=C[C@]2(c3cccc(C(=O)O)c3)c3n[nH]cc3CC[C@@H]12` [Example 71, 3-[(5aS,6S,9aR)-8-cyano-6-methyl-7-oxo-2,4,5,5a,6,7-hexahydro-9aH-benzo[g]indazol-9a-yl]benzoic acid], the IC50 came to 1470 nM.
The value for `C[C@@H]1C(=O)C(C#N)=C[C@]2(c3ccc(O)cc3)c3n[nH]cc3CCC12` (stereo partly drawn) [Example 72, (6S,9aR)-9a-(4-hydroxyphenyl)-6-methyl-7-oxo-4,5,5a,6,7,9a-hexahydro-2H-benzo[g]indazole-8-carbonitrile] was 37.9 nM; that for `C[C@@H]1C(=O)C(C#N)=C[C@]2(c3ccc(C(=O)N4CCCC4)cc3)c3ncncc3CC[C@@H]12` [Example 73, (6aS,7S,10aR)-7-methyl-8-oxo-10a-[4-(pyrrolidin-1-ylcarbonyl)phenyl]-5,6,6a,7,8,10a-hexahydrobenzo[h]quinazoline-9-carbonitrile] was 152 nM; that for `C[C@@H]1C(=O)C(C#N)=C[C@]2(c3ccccc3)c3nc(-c4c(F)cccc4F)ncc3CC[C@@H]12` [Example 74, (6aS,7S,10aR)-2-(2,6-difluorophenyl)-7-methyl-8-oxo-10a-phenyl-5,6,6a,7,8,10a-hexahydrobenzo[h]quinazoline-9-carbonitrile] was 9.26 nM.
For `COC(=O)c1ccc(-c2ncc3c(n2)[C@@]2(c4ccccc4)C=C(C#N)C(=O)[C@@H](C)[C@@H]2CC3)cc1` [Example 75, methyl 4-[(6aS,7S,10aR)-9-cyano-7-methyl-8-oxo-10a-phenyl-5,6,6a,7,8,10a-hexahydrobenzo[h]quinazolin-2-yl]benzoate] the value was 12.7 nM; for `CC(=O)n1cc(-c2nc(C)nc3c2CC[C@H]2[C@H](C)C(=O)C(C#N)=C[C@]32c2ccccc2)cn1` [Example 76, (6aS,7S,10aR)-4-(1-acetyl-1H-pyrazol-4-yl)-2,7-dimethyl-8-oxo-10a-phenyl-5,6,6a,7,8,10a-hexahydrobenzo[h]quinazoline-9-carbonitrile], 1.91 nM; for `C[C@@H]1C(=O)C(C#N)=C[C@]2(c3ccccc3)c3nc(-c4ccc(C(=O)O)cc4)ncc3CC[C@@H]12` [Example 77, 4-[(6aS,7S,10aR)-9-cyano-7-methyl-8-oxo-10a-phenyl-5,6,6a,7,8,10a-hexahydrobenzo[h]quinazolin-2-yl]benzoic acid], 15.4 nM.
`C[C@@H]1C(=O)C(C#N)=C[C@]2(c3cccc(F)c3)c3n[nH]c(-c4cccc(CCCO)c4)c3CCC12` (stereo partly drawn) [Example 78, (6S,9aR)-9a-(3-fluorophenyl)-3-[3-(3-hydroxypropyl)phenyl]-6-methyl-7-oxo-4,5,5a,6,7,9a-hexahydro-2H-benzo[g]indazole-8-carbonitrile]: the half-inhibitory concentration (IC50) is 21.8 nM.
The value for `COc1ccc([C@]23C=C(C#N)C(=O)[C@@H](C)[C@@H]2CCc2c(-c4ccc(-c5[nH]ncc5Br)cc4)nc(C)nc23)cc1` [Example 79, (6aS,7S,10aR)-4-[4-(4-bromo-1H-pyrazol-5-yl)phenyl]-10a-(4-methoxyphenyl)-2,7-dimethyl-8-oxo-5,6,6a,7,8,10a-hexahydrobenzo[h]quinazoline-9-carbonitrile] was 45.7 nM; that for `COc1ccc([C@]23C=C(C#N)C(=O)[C@@H](C)[C@@H]2CCc2c(-c4ccc(-c5ccn[nH]5)cc4)nc(C)nc23)cc1` [Example 80, (6aS,7S,10aR)-10a-(4-methoxyphenyl)-2,7-dimethyl-8-oxo-4-[4-(1H-pyrazol-5-yl)phenyl]-5,6,6a,7,8,10a-hexahydrobenzo[h]quinazoline-9-carbonitrile] was 7.43 nM.
Regarding `Cc1nc(-c2ccc(-c3[nH]ncc3Br)cc2)c2c(n1)[C@@]1(c3ccc(F)cc3)C=C(C#N)C(=O)[C@@H](C)[C@@H]1CC2` [Example 81, (6aS,7S,10aR)-4-[4-(4-bromo-1H-pyrazol-5-yl)phenyl]-10a-(4-fluorophenyl)-2,7-dimethyl-8-oxo-5,6,6a,7,8,10a-hexahydrobenzo[h]quinazoline-9-carbonitrile], the IC50 amounted to 35 nM.
The value for `C[C@@H]1C(=O)C(C#N)=C[C@]2(c3ccc(F)cc3)c3nn(C(=O)CN)cc3CC[C@@H]12` [Example 82, (5aS,6S,9aR)-9a-(4-fluorophenyl)-2-glycyl-6-methyl-7-oxo-4,5,5a,6,7,9a-hexahydro-2H-benzo[g]indazole-8-carbonitrile] was 31.3 nM; that for `Cc1nc(-c2ccc(-c3ccn[nH]3)cc2)c2c(n1)[C@@]1(c3ccc(F)cc3)C=C(C#N)C(=O)[C@@H](C)[C@@H]1CC2` [Example 83, (6aS,7S,10aR)-10a-(4-fluorophenyl)-2,7-dimethyl-8-oxo-4-[4-(1H-pyrazol-5-yl)phenyl]-5,6,6a,7,8,10a-hexahydrobenzo[h]quinazoline-9-carbonitrile] was 16.4 nM; that for `C[C@@H]1C(=O)C(C#N)=C[C@]2(c3ccccc3)c3nc(-c4cnccn4)ncc3CC[C@@H]12` [Example 84, (6aS,7S,10aR)-7-methyl-8-oxo-10a-phenyl-2-(pyrazin-2-yl)-5,6,6a,7,8,10a-hexahydrobenzo[h]quinazoline-9-carbonitrile] was 6.72 nM.
For `C[C@@H]1C(=O)C(C#N)=C[C@]2(c3ccccc3)c3nc(C(C)(C)C)ncc3CC[C@@H]12` [Example 85, (6aS,7S,10aR)-2-tert-butyl-7-methyl-8-oxo-10a-phenyl-5,6,6a,7,8,10a-hexahydrobenzo[h]quinazoline-9-carbonitrile] the value was 33.8 nM.
For `C[C@@H]1C(=O)C(C#N)=C[C@]2(c3ccccc3)c3n[nH]c(-c4cccnc4)c3CC[C@@H]12` [Example 86, (5aS,6S,9aR)-6-methyl-7-oxo-9a-phenyl-3-(pyridin-3-yl)-4,5,5a,6,7,9a-hexahydro-2H-benzo[g]indazole-8-carbonitrile] the value was 3.95 nM; for `C[C@@H]1C(=O)C(C#N)=C[C@]2(c3ccccc3)c3n[nH]c(-c4cncnc4)c3CC[C@@H]12` [Example 87, (5aS,6S,9aR)-6-methyl-7-oxo-9a-phenyl-3-(pyrimidin-5-yl)-4,5,5a,6,7,9a-hexahydro-2H-benzo[g]indazole-8-carbonitrile], 4.18 nM; for `C[C@@H]1C(=O)C(C#N)=C[C@]2(c3ccccc3)c3n[nH]c(-c4cccc(O)c4)c3CC[C@@H]12` [Example 88, (5aS,6S,9aR)-3-(3-hydroxyphenyl)-6-methyl-7-oxo-9a-phenyl-4,5,5a,6,7,9a-hexahydro-2H-benzo[g]indazole-8-carbonitrile], 20.1 nM.
Take `C[C@@H]1C(=O)C(C#N)=C[C@]2(c3ccccc3)c3n[nH]c(-c4cnn(C)c4)c3CC[C@@H]12` [Example 89, (5aS,6S,9aR)-6-methyl-3-(1-methyl-1H-pyrazol-4-yl)-7-oxo-9a-phenyl-4,5,5a,6,7,9a-hexahydro-2H-benzo[g]indazole-8-carbonitrile]: the IC50 is 8.18 nM.
For the compound `COc1ccc([C@]23C=C(C#N)C(=O)[C@@H](C)[C@@H]2CCc2c(-c4ccc5[nH]cnc5c4)nc(C)nc23)cc1` [Example 90, (6aS,7S,10aR)-4-(1H-benzimidazol-5-yl)-10a-(4-methoxyphenyl)-2,7-dimethyl-8-oxo-5,6,6a,7,8,10a-hexahydrobenzo[h]quinazoline-9-carbonitrile], the concentration for half-maximal inhibition (IC50) stood at 7.32 nM.
The value for `Cc1nc(-c2ccc3[nH]cnc3c2)c2c(n1)[C@@]1(c3ccc(F)cc3)C=C(C#N)C(=O)[C@@H](C)[C@@H]1CC2` [Example 91, (6aS,7S,10aR)-4-(1H-benzimidazol-5-yl)-10a-(4-fluorophenyl)-2,7-dimethyl-8-oxo-5,6,6a,7,8,10a-hexahydrobenzo[h]quinazoline-9-carbonitrile] was 13.6 nM.
For `Cc1nc(-c2cccc3c(Br)n[nH]c23)c2c(n1)[C@@]1(c3ccc(F)cc3)C=C(C#N)C(=O)[C@@H](C)[C@@H]1CC2` [Example 92, (6aS,7S,10aR)-4-(3-bromo-1H-indazol-7-yl)-10a-(4-fluorophenyl)-2,7-dimethyl-8-oxo-5,6,6a,7,8,10a-hexahydrobenzo[h]quinazoline-9-carbonitrile] the value was 31.7 nM; for `Cc1nc(-c2cccc3cn[nH]c23)c2c(n1)[C@@]1(c3ccc(F)cc3)C=C(C#N)C(=O)[C@@H](C)[C@@H]1CC2` [Example 93, (6aS,7S,10aR)-10a-(4-fluorophenyl)-4-(1H-indazol-7-yl)-2,7-dimethyl-8-oxo-5,6,6a,7,8,10a-hexahydrobenzo[h]quinazoline-9-carbonitrile], 7.27 nM.
For `Cc1nc(-c2c[nH]c(=O)[nH]c2=O)c2c(n1)[C@@]1(c3ccc(F)cc3)C=C(C#N)C(=O)[C@@H](C)[C@@H]1CC2` [Example 94, (6aS,7S,10aR)-4-(2,4-dioxo-1,2,3,4-tetrahydropyrimidin-5-yl)-10a-(4-fluorophenyl)-2,7-dimethyl-8-oxo-5,6,6a,7,8,10a-hexahydrobenzo[h]quinazoline-9-carbonitrile] the value was 639 nM.
On to `C[C@@H]1C(=O)C(C#N)=C[C@]2(c3cccc(C(=O)Nc4ccccc4)c3)c3ncncc3CC[C@@H]12` [Example 95, 3-[(6aS,7S,10aR)-9-cyano-7-methyl-8-oxo-6,6a,7,8-tetrahydrobenzo[h]quinazolin-10a(5H)-yl]-N-phenylbenzamide], for which the IC50 is 15.5 nM.
Take `CCCNC(=O)c1cccc([C@]23C=C(C#N)C(=O)[C@@H](C)[C@@H]2CCc2cncnc23)c1` [Example 96, 3-[(6aS,7S,10aR)-9-cyano-7-methyl-8-oxo-6,6a,7,8-tetrahydrobenzo[h]quinazolin-10a(5H)-yl]-N-propylbenzamide]: the IC50 was determined as 78.2 nM.
The value for `C[C@@H]1C(=O)C(C#N)=C[C@]2(c3ccccc3)c3nn(C)c(-c4ccnnc4)c3CC[C@@H]12` [Example 97, (5aS,6S,9aR)-2,6-dimethyl-7-oxo-9a-phenyl-3-(pyridazin-4-yl)-4,5,5a,6,7,9a-hexahydro-2H-benzo[g]indazole-8-carbonitrile] was 15 nM.
